Measurements as given in patent EP0590721A1, “Method for expressing receptors of the human nervous system in the yeast Schizosaccharomyces pombe” (ENICHEM S.p.A., priority 1992, dated 1994).

Biological target: chimeric protein STE2-β₂AR (Homo sapiens, UniProt P07550)
Details: (125I)-CYP 20 pM, competitor 10⁻⁹ M to 10⁻³ M, 37°C one hour, TNE

With `CNC[C@H](O)c1ccc(O)c(O)c1` [epinephrine] the inhibition efficiency order was “alprenolol > isoproterenol > epinephrine”.
